Measured values reported in patent US20240033200A1, “SEMI-PERMANENT TATTOOS” (Inkbox Ink Inc., priority 2020, published 2024).

Columns and labels:
[1] = Reaction with L-lysine (amino acids) to mimic skin binding; colour and UV-VIS of the dye formed; details: for color of solution 1 hr after the addition of L-lysine: 1 hr after L-lysine; for color produced upon reaction with amino acids: Additional Color Combinations; for color of solution after the addition of L-lysine: after addition of L-lysine ("Add Lysine"/"Lysine added"); for color of L-lysine reaction solution after dilution: after dilution (vial at left); for color of solution before the addition of L-lysine: before L-lysine (Time 0); for color of dye produced by reaction with L-lysine / λmax of dye produced after reaction with L-lysine: methanol, 2 equivalents L-lysine, room temperature; for color of dye produced by reaction with L-lysine: open air; for λmax of dye produced after reaction with L-lysine: open air (44 hours for Compound 1, overnight for others)
Method: Compound 1 was weighed out (0.03 mmol) into a small vial equipped with a magnetic stir bar. To this vial, 1 mL of methanol was added and stirred until solubilized. L-lysine was then added to the stirred solution (2 equivalents) and the reaction mixture was capped and stirred over 44 hours at room temperature. A needle was punctured through the vial cap to ensure the reaction is conducted under open air. This method produced a yellow dye with a λmax=436 nm. See also FIGS. 26A and 26B.
(§1) Compound 10 was weighed out (n=0.03 mmol) into a small vial equipped with a magnetic stir bar. To this, 1 mL of methanol was added and stirred until solubilized. L-lysine was then added to the stirred solution (2 equivalents) and the reaction mixture was capped and stirred overnight at room temperature. A needle was punctured through the vial cap to ensure the reaction is conducted under open air. This produced a yellow dye with a λmax=433 nm.
as §1, with “14” for “10”, “produces” for “produced”, “red” for “yellow”, “λmax=480” for “λmax=433”
(§2) Compound 11 was weighed out (n=0.03 mmol) into a small vial equipped with a magnetic stir bar. To this, 2.5 mL of methanol was added followed by L-lysine (0.06 mmol, 2 equivalents). The reaction mixture was stirred for 24 hours at room temperature under open air. Compound 11 and Compound 11+lysine were diluted with methanol to make 0.06 mM solutions for UV-VIS characterization.
as §2, with “13” for “11”, “1.5” for “2.5”, “13+lysine” for “11 and Compound 11+lysine”
as §2, with “5” for “11”, “(n=0.05” for “(n=0.03”, “(0.1” for “(0.06”, “5+lysine” for “11+lysine”, “0.1” for “0.06”
(§3) Compound 7 was weighed out (n=0.04 mmol) into a small vial equipped with a magnetic stir bar. To this, 2 mL of methanol was added followed by L-lysine (0.08 mmol, 2 equivalents). The reaction mixture was stirred for 24 hours at room temperature under open air. Compound 7 and Compound 7+lysine were diluted with methanol to make 0.1 and 0.15 mM solutions, respectively, for UV-VIS characterization.
as §3, with “Compound 9” for “Compound 7”, “out (n=0.03” for “out (n=0.04”, “this, 1.5” for “this, 2”, “L-lysine (0.06” for “L-lysine (0.08”, “Compound 9+lysine” for “Compound 7+lysine”
as §2, with “Genipin” for “Compound 11”, “1.5” for “2.5”, “Genipin+lysine” for “Compound 11 and Compound 11+lysine”
Compound 12 was weighed out (n=0.03 mmol) into a small vial equipped with a magnetic stir bar. To this, 1.5 mL of methanol was added followed by L-lysine (0.06 mmol, 2 equivalents). The reaction mixture was stirred for 24 hours at room temperature under open air. […]

[2] = Color profile of single, binary and ternary dye compositions (Table 5); details: total dye in the final formulation 0.008-0.40 mmol/g

| Structure (SMILES) | color produced upon reaction with amino acids [1] | color of solution after the addition of L-lysine [1] | color of L-lysine reaction solution after dilution [1] | color of solution before the addition of L-lysine [1] | color of dye produced by reaction with L-lysine [1] | λmax of dye produced after reaction with L-lysine [1] | colors observed with L-lysine (FIG. 33) [1] | also measured |
| --- | --- | --- | --- | --- | --- | --- | --- | --- |
| COC(=O)C1=COC(OC(C)=O)C2C(C=O)=CCC12 (stereo not drawn) [Compound 2] | – | – | – | – | – | – | – | Color when reacted with amino acids [2]: Vibrant Red |
| COC(=O)C1=COC(O)[C@@H]2C(/C=C/c3ccccc3)=CC[C@H]12 (stereo partly drawn) [Compound 7] | vibrant red | – | – | – | – | – | – | – |
| COC(=O)C1=COC(O)[C@@H]2C(/C=C/c3ccc([N+](=O)[O-])cc3)=CC[C@H]12 (stereo partly drawn) [Compound 9] | vibrant red | – | – | – | – | – | – | – |
| COC(=O)C1=COC(O)C2C1CC1COC12O (stereo not drawn) [Compound 10] | – | light brown | – | – | yellow | 433 nm | – | – |
| O=C1C(O)=C(c2ccccc2)C(=O)c2ccccc21 [Compound 14, 2-Hydroxy-3-phenyl-1,4-Naphthalenedione] | – | – | – | – | red | 480 nm | – | – |

More lines, main results first:

| color produced upon reaction with amino acids [1] | color of solution after the addition of L-lysine [1] | color of L-lysine reaction solution after dilution [1] | color of solution before the addition of L-lysine [1] | color of dye produced by reaction with L-lysine [1] | λmax of dye produced after reaction with L-lysine [1] | colors observed with L-lysine (FIG. 33) [1] | Structure (SMILES) | also measured |
| --- | --- | --- | --- | --- | --- | --- | --- | --- |
| vibrant yellow | dark yellow | yellow | colorless | yellow | 436 nm | yellow | COC(=O)C1=COC(O)C2C(C=O)=CCC12 (stereo not drawn) [Compound 1] | color of solution 1 hr after the addition of L-lysine [1]: dark brown; color of solution at 44 hours after the addition of L-lysine ([1]; 44 hours): brown |
| vibrant red | – | – | – | – | – | – | CCOC(=O)C(=CC1=CCC2C(C(=O)OC)=COC(OC(C)=O)C12)C(=O)OCC (stereo not drawn) [Compound 11] | – |
| vibrant green | light yellow | light yellow | colorless | – | – | light yellow | COC(=O)C1=COC(O)C2C(C(=O)O)=CCC12 (stereo not drawn) [Compound 12] | color of solution at 18 hours after the addition of L-lysine ([1]; 18 hours): dark brown |
| vibrant orange | – | – | – | – | – | – | CCN(CC)C(=O)C1=CCC2C(C(=O)OC)=COC(O)C12 (stereo not drawn) [Compound 13] | – |
| – | yellow | light blue | colorless | – | – | light blue | COC(=O)C1=CO[C@@H](O)[C@@H]2C(CO)=CC[C@H]12 [genipin, reference compound] | color of solution 1 hr after the addition of L-lysine [1]: dark blue |
